Tested on: HA proteins from five different viral strains H1N1, H5N1, H9N2, H3N2 and H14N5
Format: biochemical, influenza virus

Row | Sequence | ability to block pH triggered shape changes / low pH induced association of HA proteins
1 | AERPKVRGQAGRMN [LPF54] | ability to block pH triggered shape changes
2 | KEFNNLEKR [PF42] | ability to block pH triggered shape changes
3 | KEFSEVEGR [PF41] | ability to block pH triggered shape changes
4 | PGDFNDYE [PF13] | ability to block pH triggered shape changes
5 | PYDVPDYA [PF12] | ability to block pH triggered shape changes
6 | PYDVPDYE [PF11] | ability to block pH triggered shape changes
7 | TKRSQQTVIP [PF31] | ability to block pH triggered shape changes
8 | TSRSQQTVIP [PF32] | ability to block pH triggered shape changes

Reference: patent publication US9458196B2, “Synthetic peptides capable of binding to influenza hemagglutinin protein” (priority 2012, dated 2016)
